# Article PMC5993284, “Peptide inhibitors of the anaphase promoting-complex that cause sensitivity to microtubule poison” (PLoS ONE, 2018)
# Ends that are not written are not given here. * marks the point of attachment. Biotin = O=C1N[C@H]2[C@H](CS[C@H]2CCCCC(=O)*)N1
# Tested on: APC/C
# Assay: Biotinylated peptide pull-down of purified APC/C, Western blot
# Assay type: binding, Saccharomyces cerevisiae
# Details: 20 μM biotinylated peptide, purified yeast APC/C, 1 h at 4 °C, streptavidin/Avidin beads, n = 3
# Description: For APC/C purification, the APC/C which contain Cdc16-TAP-tag was isolated from 2 mL arrested yeast lysate by 120 μL IgG sepharose 6 Fast Flow beads (GE Healthcare Life Sciences) and incubate for 2 h at 4 °C on a rotating wheel. Beads were collected washed with 5 mL of APC/C wash buffer (200 mM Hepes pH8.0, 150 mM NaCl, 10% glycerol). Beads were resuspended in 150 μL of APC/C wash buffer contain 17.6 units of AcTEV protease (Invitrogen, Carlsbad, CA) at 4°C for 3 h with pipetting every 20 minutes. The purified APC/C was collected in the flow-through.
# For APC/C binding assays, 20 μM biotinylated peptides or 20 μM peptides only as a negative control were incubated with purified APC/C and 100 μL APC/C wash buffer which contains phosphatase inhibitors (200 mM Hepes pH 8.0, 150 mM NaCl, 10% glycerol, 10 mM NaF, 1 mM NaVO4, 5 mM Na-pyrophosphate, 10 mM 2-glycerol phosphate) for 1 h at 4 °C. The mixtures were applied to 120 μL streptavidin beads (Dynabeads MyOne Streptavidin T1, Invitrogen) for 30 min at 4 °C with gentle pipetting every 10 min. Beads were washed with 1 mL of PBST buffer (Phosphate buffer saline and 0.1% Tween 20) three times SDS-PAGE protein sample was added directly. For APC/C binding competition experiments, the biotinylated peptide and 10-fold excess non-biotinylated peptides were added to purified APC/C at same time.
# Free D-biotin in 10% DMSO was used for the control binding assays. For pre-coating APC/C with biotin, a modified APC/C purification was performed. 2 mL yeast lysate was incubated with 120 μL IgG Sepharose beads and additional 20.4 μM free biotin or non-biotin solvent as a positive control was added and samples were incubated for 2 h at 4 °C on a rotating wheel. Purified pre-coated APC/C was then removed from the IgG Sepharose following the standard purification procedure. 20 μM biotinylated peptides or 20 μM peptides as a negative control were incubated with pre-coated APC/C and 100 μL APC/C wash buffer which contain phosphatase inhibitors for 1 h at 4 °C. In addition, 20 μM biotinylated peptide was added and incubated with pre-coated APC/C in a non-biotin containing solvent as positive control. Pre-coated APC/C binding procedures were same as above. For pre-coating streptavidin beads with biotin, streptavidin beads were washed in the presence of 10.2 nmol/mL D-biotin in PBST buffer or non-biotin solvent as a positive control before use. Pre-coated streptavidin beads were incubated with purified APC/C-peptide complexes with an extra […] biotin for 30 minutes with gentle pipetting every 10 min at 4 °C.
# Proteins were separated in SDS-PAGE gels and then were transferred to PVDF membrane. Blocking was performed by incubating samples in 20 mL PBST with 5% milk at 4 °C. Rabbit anti-tap (Thermo, CAB1001) was used as primary antibodies at a 1:1000 dilution and incubated for 2 hours at RT. Anti-rabbit HRP (Jackson, USA) was then used as secondary antibody at 1:5000 dilution and incubate for 1 hr at RT. Chemiluminescence signals were detected using an ImageQuant LAS 4000 (GE Healthcare Bio-Sciences, USA). For cell cycle timing Western blots anti-MYC and anti-Actin antibodies were employed (ABCAM, UK).
substance,measurement,value
DQ36-mut1: DQ36-mut1 where all 5 RILQY residues were changed to alanine AAAAA (Biotin-DMNKAAAAAMPEPPKCSSLRQKSYIMKKRTHYSYQQ),binding to APC/C (in words),maintained the ability to pull-down APC/C
